Reference: patent US6699459B2, “Methods of treating lung inflammation” (The Board of Regents of the University of Texas System, priority 2001, dated 2004)

Tests used:
Type in all cases: cell-based, human
[1] = test system: IRF-1 GAS; experiment: EMSA of IRF-1 GAS binding complexes, nuclear extracts of RSV-infected A549 cells; conditions: RSV 6 hours, 400 μM
Protocol: (§1) Electrophoretic mobility shift assay (EMSA): Nuclear extracts of uninfected and infected A549 cells were prepared using hypotonic/nonionic detergent lysis, as previously described (20). Proteins were normalized by protein assay (Protein Reagent, Bio-Rad, Hercules, Calif.) and used to bind to a duplex oligonucleotide corresponding to the IRF-1 gamma interferon activated sequence (GAS) and IRF-7 ISRE, whose sequences are shown below.
(§2) DNA-binding reactions contained 10-15 μg nuclear proteins, 5% glycerol, 12 mM HEPES, 80 mM NaCl, 5 mM DTT, 5 mM Mg2Cl, 0.5 mM EDTA, 1 μg of poly dI-dC and 40,000 cpm of ^32P-labeled double-stranded oligonucleotide in a total volume of 20 μl. The nuclear proteins were incubated with the probe for 15 minutes at room temperature and then fractionated by 4% nondenaturing polyacrylamide gels (PAGE) in 0.5× TBE buffer (22 mM Tris-HCl, 22 mM boric acid, 0.25 MM EDTA, pH 8), at 120 volts. After electrophoretic separation, gels were dried and exposed for autoradiography using Kodak XAR film at −70° C. using intensifying screens. In the gel mobility supershift, commercial antibodies against specific transcription factors were added to the binding reactions and incubated on ice for one hour prior to fractionation on 6% PAGE.

[2] = test system: RANTES mRNA; experiment: Northern blot of RANTES mRNA in RSV-infected A549 cells; conditions: 400 μM
Protocol: Cell culture and infection of epithelial cells with RSV. A549, human alveolar type II-like epithelial cells (ATCC, Manassas, Va.), were maintained in F12K medium containing 10% (v/v) fetal bovine serum (FBS), 10 mM glutamine, 100 IU/ml penicillin and 100 μg/ml streptomycin. Small alveolar epithelial cells (SAE) were obtained from Clonetics (San Diego, Calif.) and grown according to the company instructions. Cell monolayers were infected with RSV at multiplicity of infection (MOI) of 1 (unless otherwise stated), as described (17). An equivalent amount of a 20% sucrose solution was added to uninfected A549 cells, as a control. For the antioxidant experiments, cells were pretreated with the antioxidants for one hour and then infected in the presence of the antioxidants. Since BHA was diluted in ethanol, equal amounts of ethanol were added to untreated cells, as a control. Total number of cells, cell viability and viral replication, following antioxidant treatment, were measured by trypan blue exclusion and by plaque assay, respectively. Northern Blot. Total RNA was extracted from control and infected A549 cells by the acid guanidium thiocyanate-phenol chloroform method (18). Twenty micrograms of RNA were fractionated on a 1.2% agarose-formaldehyde gel, transferred to nylon membranes and hybridized to a radiolabeled RANTES, IRF-1, -3 and -7 cDNAs, as previously described (19). […]

[3] = test system: IRF-3 mRNA; experiment: Northern blot of IRF-3 mRNA in RSV-infected A549 cells; conditions: data not shown
Protocol: Northern Blot. Total RNA was extracted from control and infected A549 cells by the acid guanidium thiocyanate-phenol chloroform method (18). Twenty micrograms of RNA were fractionated on a 1.2% agarose-formaldehyde gel, transferred to nylon membranes and hybridized to a radiolabeled RANTES, IRF-1, -3 and -7 cDNAs, as previously described (19). Hybridization temperature for all probes was 55° C. After washing, membranes were exposed for autoradiography using Kodak XAR film at −70° C. using intensifying screens. After exposure, membranes were stripped and rehybridized with a β-actin probe.

[4] = test system: IRF-3; experiment: Western blot of IRF-3 in total cell lysates of RSV-infected A549 cells; conditions: whole cell extracts, RSV 12 hours, 400 μM
Protocol: Western Immunoblot. Total cell lysates and cytoplasmic and nuclear proteins were prepared as previously described, fractionated by SDS-PAGE and transferred to PVDF membrane (20). Membranes were blocked with 5% albumin in TBS-Tween and incubated overnight with a rabbit polyclonal antibody to IRF-1, -3 and -7 (Santa Cruz Biotech, Santa Cruz, Calif.). For secondary detection, a horseradish-coupled anti-rabbit or anti-mouse antibody was used in the enhanced chemiluminescence assay (Amersham Pharmacia Biotec, Arlington Heights, Ill.).

[5] = test system: IRF-3; experiment: Microaffinity isolation/Western blot for IRF-3 bound to RANTES ISRE; conditions: nuclear extracts, RSV 12 hours
Protocol: Microaffinity isolation assay. Microaffinity purification of proteins binding to the RANTES ISRE was performed using a two-step biotinylated DNA-streptavidin capture assay (20). In this assay, duplex oligonucleotides are chemically synthesized containing 5′ biotin (Bt) on a flexible linker (Genosys, the Woodlands, TX). Four hundred micrograms of 12 hours-infected A549 cells nuclear extracts were incubated at 4° C. for 30 minutes with 50 pmoles of Bt ISRE, in the absence or presence of 10 fold molar excess of non-biotinylated ISRE wild type (WT) or mutated (MUT). The binding buffer contained 8 μg poly dI/dC (as nonspecific competitor) and 5% (v/v) glycerol, 12 mM HEPES, 80 mM NaCl, 5 mM DTT, 5 mM Mg2Cl, 0.5 mM EDTA. One hundred μl of a 50% slurry of pre-washed streptavidin-agarose beads was then added to the sample, and incubated at 4° C. for an additional 20 minutes with gentle rocking. Pellets were washed twice with 500 μl binding buffer, and the washed pellets were resuspended in 100 μl 1×SDS-PAGE buffer, boiled and fractionated on a 10% SDS-polyacrylamide gel. After electrophoresis separation, proteins were transferred to polyvinylidene difluoride (PVDF) membrane for Western blot analysis.
Western Immunoblot. Total cell lysates and cytoplasmic and nuclear proteins were prepared as previously described, fractionated by SDS-PAGE and transferred to PVDF membrane (20). […]

[6] = test system: IRF-7 ISRE; experiment: EMSA of IRF-7 ISRE binding complexes, nuclear extracts of RSV-infected A549 cells; conditions: all time points, 400 μM
Protocol: as §1, §2

[7] = test system: ROS; experiment: H2O2-induced ROS production in A549 cells (DCF oxidation); conditions: 200 μM H2O2, 400 μM BHA
Protocol: Assesment of intracellular ROS generation. A549 cells were grown in 96-well tissue culture plates and infected with RSV, at 0.1, 0.5 and 1 multiplicity of infection (MOI). At different times post-infection, cells were washed with Hank's Balanced Salt Solution (HBSS) and loaded with 10 μM 2,7 dichlorofluorescein diacetate (DCF-DA) in HBSS medium containing 25 mM HEPES, pH 7.4, for 30 minutes at 37° C. The cells were then washed twice and fluorescence intensity was determined at 485 nm excitation and 590 nm emission, using an automated fluorescence reader (Flurocount, Hewlett-Packard Instruments, IL). For the experiments in which H2O2 was used as a stimulus for ROS production, cells were preloaded with […] DCF-DA for 30 minutes, washed and then fluorescence intensity was measured at different times following addition of H2O2. Measurements were performed in triplicate and results expressed as fluorescence mean±S.D. of n=3 independent experiments.

COc1ccc(O)c(C(C)(C)C)c1 [BHA, butylated hydroxyanisol]
RSV-induced STAT binding to the IRF-1 GAS [1]: completely abolished | RSV-induced RANTES mRNA induction ([2]; 6 and 12 hours post-infection): completely inhibited | RSV-induced RANTES mRNA induction ([2]; 24 hours post-infection): greatly reduced | IRF-3 mRNA level [3]: unaffected | RSV-induced IRF-3 mobility shift [4]: almost completely abolished | IRF-3 binding to RANTES ISRE [5]: almost completely abolished | binding of the RSV-inducible complexes to the IRF-7 ISRE probe [6]: greatly reduced | H2O2-induced ROS production [7]: almost completely inhibited
